The record followed here is a melting point compilation (Tetko et al.; mined from patent text by program, amines drawn as free bases though some values may be those of a salt).

Each structure is given as a SMILES string.

The term melting point denotes the temperature, or range, at which the solid turns liquid. `Cc1oc2cc(C(CC(=O)O)CC(=O)O)ccc2c1C` returned a melting point of 190 to 192 °C. The value for `CCOC(=O)c1c(C)n(C)c(-c2ccccc2)cc1=O` was 154 °C; that for `COC(=O)Cn1c(Cl)c(Cl)c(Cl)c1Cl` was 115 °C. As for `O=C1N(c2ccc(C(F)(F)F)cc2)CN2C(c3ccc(Cl)cc3)C(c3ccccc3)CN12` (stereo not drawn), the figure is 184 to 187 °C; as for `CCOC(=O)c1cn(C)c2nc3cc(N4CCNC(c5ccco5)C4)c(F)cc3cc2c1=O` (racemic), 198 to 200 °C. With `CC1=C(c2cccc(Cl)c2)n2ncc(C#N)c2N(C(=O)CCl)C1`, the melting point is 132 to 135 °C. The value for `COCCc1nc2c(N)nc3ccccc3c2n1CCCNC(=S)NC1CCCCC1` was 199 to 200 °C.

With `COC(=O)C1CCCCc2c(-c3ccc(Cl)cc3)noc2C1` (stereo not drawn), the melting point was 65 to 69 °C. The value for `CSc1cc2c(cc1C(F)(F)F)N(C(=O)Nc1cccc(C(=O)NCCN3CCCCC3)c1)CC2` was 79 to 81 °C. The value for `Cn1ncc(/C=C/C(=O)Nc2ccc(Cn3ccnc3)cc2)c1-c1ccc(F)cc1` was 213 to 214 °C; that for `O=C(O)CNC(=O)N1CCc2cc(S(=O)(=O)N3CCN(c4cccc(Cl)c4)CC3)ccc21` was 214 °C. The compound `Cc1cc(NC(=O)NN(c2ccccc2)c2cccc(CN)c2)ccc1N1CCCCC1=O` returned a melting point of 172 to 173 °C.

The compound `CCCc1nn(-c2ccc(C(F)(F)F)cn2)cc1CCCCOc1nn(C)cc1CC(=O)O` registered a melting point of 95 to 97 °C. The value for `CCOCn1cc(F)c(=O)n(C(=O)c2cccc(C(=O)Oc3nc(OC(=O)c4ccc(Cl)cc4Cl)ccc3C#N)c2)c1=O` was 140 to 142 °C; that for `C#Cc1cc2c(Nc3ccc4c(cnn4Cc4ccccc4)c3)ncnc2s1` was 195 °C; that for `Nc1cccc(C(=O)CN2CCN(c3ccc(CO)c(Cl)c3)CC2)c1` was 174 to 180 °C. In turn, `COc1ccc(C2=CC=CCC2(OC(C)C)C(=O)O)c(OC)c1` (stereo not drawn) gave a melting point of 121 to 122 °C. The value for `CS(=O)(=O)c1ccccc1S(=O)(=O)Nc1cccc2cc(C(=O)NCCSC(c3ccccc3)(c3ccccc3)c3ccccc3)[nH]c12` was 91 to 93 °C. As for `CCC(O)c1c(C)nc2ccccc2c1N` (stereo not drawn), the figure is 220 to 230 °C; as for `O=C(NS(=O)(=O)c1cccc([N+](=O)[O-])c1)c1ccccc1Cl`, 135 °C; as for `CCCc1nn(-c2ccc(C(F)(F)F)cn2)cc1CCCOc1c(CC(=O)O)cccc1C(C)C`, 102 to 103 °C. `CC(=O)N1CC=C(C#Cc2ccc3c(c2)NC(=O)CC(c2cccc(C#N)c2)=N3)CC1` showed a melting point of 203 °C. Compound `CCCCc1nc2cccc(COC)c2n1Cc1ccc(-c2ccccc2CO)cc1` returned a melting point of 126 to 127 °C. In turn, `CC1(C)C=C(I)C(=O)C(C)(C)C1` displayed a melting point of 41 to 42 °C. Compound `CCOC(=O)c1cc(N)cc(N)c1` returned a melting point of 77 to 78 °C. As for `O=S(=O)(NCC1CCC(NCC2CCc3ccccc3C2)CC1)c1ccc2ccccc2c1` (stereo not drawn), the figure is 114 to 115 °C. With `O=C(Nc1cc[nH]n1)c1c(F)cccc1F`, the melting point lay within 201 to 204 °C. Compound `Cc1nc2c(cc1C(=O)NC(=N)N)C(O)CCCC2` (stereo not drawn) came in with a melting point of 225 to 226 °C. Take `Oc1cnccc1CCCOc1cccnc1Cc1cccc(Br)c1`: the melting point lay in the range of 138 to 139 °C. The value for `NC(=O)n1ccc(-c2ccc(Sc3ccc(F)cc3)cc2)n1` was 150 to 155 °C; that for `CSc1ccc(-c2oc3ccccc3c(=O)c2-c2ccc(C(F)(F)F)cc2)cc1` was 189 to 192 °C; that for `O=C(c1ccc(-c2ccc(-c3ccc(-c4ccc(C(=O)c5c(F)c(F)c(F)c(F)c5F)s4)s3)s2)s1)c1c(F)c(F)c(F)c(F)c1F` was 291 to 294 °C. The value for `CN(C[C@H]1CC[C@H](NC(=O)OCc2ccccc2)CC1)C1CCOCC1` was 81 to 84 °C.
